Source: patent US12171230B2, “Herbicidal compositions” (Bayer Aktiengesellschaft, priority 2018, dated 2024)

Experiments:
Format in all cases: in vivo
Bromus sterilis [1] = experiment: Post-emergence herbicidal action against Bromus sterilis; details: 14 DAT; 50 g a.i./ha
Poa annua = experiment: Post-emergence herbicidal action against Poa annua; details: for Herbicidal action: 14 DAT
Description: (§1) When the observed efficacies exceed the formal sum total of the values of the tests with individual applications, they also exceed the expected value according to Colby, which is calculated using the formula below and is likewise regarded as an indication of synergism (cf. S. R. Colby; in Weeds 15 (1967) p. 20 to 22): E^C=A+B−([…])
(§2) Here: • A=efficacy of the active compound (A) in % at an application rate of a g a.i./ha; • B=efficacy of the active compound (B) in % at an application rate of b g a.i./ha; • E^C=expected value of the effect of the combination (A)+(B) in % at the combined application rate a+b g a.i./ha.
(§3) Seeds or rhizome pieces of mono- and dicotyledonous weeds are placed in sandy loam in pots, covered with soil and grown in a greenhouse under good growth conditions (temperature, air humidity, water supply). Three weeks after sowing, the test plants were treated at the three-leaf stage with the compositions according to the invention. The compositions according to the invention formulated as spray powders or as emulsion concentrates were sprayed onto the green plant parts in various dosages with an application rate of 300 to 800 l/ha of water (equivalent). After the test plants have been left to stand in the greenhouse under optimal growth conditions for about 3 to 4 weeks, the action of the preparations is scored visually in comparison to untreated controls. The compositions according to the invention also have good post-emergence herbicidal activity against a broad spectrum of economically important gramineous and broadleaf weeds.

Phalaris minor [2] = experiment: Post-emergence herbicidal action against Phalaris minor
Matricaria inodora = experiment: Post-emergence herbicidal action against Matricaria inodora; details: for Herbicidal action: 450 g a.i./ha
Viola tricolor [3] = experiment: Post-emergence herbicidal action against Viola tricolor
Centaurea cyano = experiment: Post-emergence herbicidal action against Centaurea cyano
Description: Seeds or rhizome pieces of mono- and dicotyledonous weeds are placed in sandy loam in pots, covered with soil and grown in a greenhouse under good growth conditions (temperature, air humidity, water supply). Three weeks after sowing, the test plants were treated at the three-leaf stage with the compositions according to the invention. The compositions according to the invention formulated as spray powders or as emulsion concentrates were sprayed onto the green plant parts in various dosages with an application rate of 300 to 800 l/ha of water (equivalent).

Galium aparine = experiment: Post-emergence herbicidal action against Galium aparine
Description: as §1, §2, §3

Lolium rigidum [4] = experiment: Post-emergence herbicidal action against Lolium rigidum
Alopecurus myosuroides = experiment: Post-emergence herbicidal action against Alopecurus myosuroides
Viola tricolor [5] = experiment: Post-emergence herbicidal action against Viola tricolor; details: 5 g of a.i./ha
Bromus sterilis [6] = experiment: Post-emergence herbicidal action against Bromus sterilis
Lolium rigidum [7] = experiment: Post-emergence herbicidal action against Lolium rigidum; remark: listed apart in the source
Lamium purpureum = experiment: Post-emergence herbicidal action against Lamium purpureum; details: 45 g of a.i./ha
Description: as §1, §2, §3

Phalaris minor [8] = experiment: Post-emergence herbicidal action against Phalaris minor; remark: listed apart in the source
[9] = test system: Lolium rigidum (resistant biotype); experiment: Post-emergence herbicidal action against Lolium rigidum (resistant biotype)

SMILES: CP(=O)(O)CCC(N)C(=O)O (stereo not drawn) [(7.4) Glufosinate]
- Herbicidal action (Bromus sterilis [1]): 0%
- Herbicidal action (Poa annua; 50 g a.i./ha): 10%
- Herbicidal action (Poa annua; 150 g a.i./ha): 30%
- Herbicidal action (Poa annua; 450 g a.i./ha): 40%
- Herbicidal action (Phalaris minor [2]; 14 DAT, 50 g a.i./ha): 0%
- Herbicidal action (Phalaris minor [2]; 14 DAT, 150 g a.i./ha): 30%
- Herbicidal action (Phalaris minor [2]; 28 DAT, 50 g a.i./ha): 0%
- Herbicidal action (Phalaris minor [2]; 28 DAT, 150 g a.i./ha): 10%
- Herbicidal action (Phalaris minor [2]; 28 DAT, 450 g a.i./ha): 30%
- Herbicidal action (Matricaria inodora; 14 DAT): 90%
- Herbicidal action (Matricaria inodora; 28 DAT): 85%
- Herbicidal action (Viola tricolor [3]; 14 DAT, 150 g a.i./ha): 80%
- Herbicidal action (Viola tricolor [3]; 28 DAT, 50 g a.i./ha): 20%
- Herbicidal action (Viola tricolor [3]; 28 DAT, 150 g a.i./ha): 50%
- Herbicidal action (Viola tricolor [3]; 28 DAT, 450 g a.i./ha): 60%
- Herbicidal action (Centaurea cyano; 14 DAT, 50 g a.i./ha): 30%
- Herbicidal action (Centaurea cyano; 28 DAT, 450 g a.i./ha): 60%
- Herbicidal action (Galium aparine; 28 DAT, 50 g a.i./ha): 0%
- Herbicidal action (Lolium rigidum [4]; 14 DAT, 150 g a.i./ha): 50%
- Herbicidal action (Lolium rigidum [4]; 14 DAT, resistant biotype, 150 g a.i./ha): 30%
- Herbicidal action (Lolium rigidum [4]; 28 DAT, 150 g a.i./ha): 30%
- Herbicidal action (Lolium rigidum [4]; 28 DAT, resistant biotype, 150 g a.i./ha): 30%
- Herbicidal action (Lolium rigidum [4]; 28 DAT, resistant biotype, 450 g a.i./ha): 50%

SMILES: Cc1nn(-c2cc(CC(Cl)C(=O)O)c(Cl)cc2F)c(=O)n1C(F)F (stereo not drawn) [(B4.8) Carfentrazone]
- Herbicidal action in [%] 14 DAT against Alopecurus myosuroides (Alopecurus myosuroides; 5 g of a.i./ha): 0%
- Herbicidal action in [%] 14 DAT against Alopecurus myosuroides (Alopecurus myosuroides; 15 g of a.i./ha): 0%
- Herbicidal action in [%] 28 DAT against Alopecurus myosuroides (Alopecurus myosuroides; 15 g of a.i./ha): 0%
- Herbicidal action in [%] 14 DAT against Alopecurus myosuroides (Alopecurus myosuroides; 15 g of a.i./ha, second 14 DAT block): 15%
- Herbicidal action in [%] 14 DAT against Alopecurus myosuroides (Alopecurus myosuroides; 45 g of a.i./ha): 25%
- Herbicidal action in [%] 28 DAT against Alopecurus myosuroides (Alopecurus myosuroides; 45 g of a.i./ha): 20%
- Herbicidal action in [%] 14 DAT against Alopecurus myosuroides (Alopecurus myosuroides; 45 g of a.i./ha, second 14 DAT block): 35%
- Herbicidal action in [%] 14 DAT against Poa annua L. (Poa annua; 5 g of a.i./ha): 0%
- Herbicidal action in [%] 14 DAT against Poa annua L. (Poa annua; 15 g of a.i./ha): 0%
- Herbicidal action in [%] 28 DAT against Poa annua L. (Poa annua; 15 g of a.i./ha): 0%
- Herbicidal action in [%] 14 DAT against Poa annua L. (Poa annua; 45 g of a.i./ha): 10%
- Herbicidal action in [%] 28 DAT against Poa annua L. (Poa annua; 45 g of a.i./ha): 20%
- Herbicidal action in [%] 28 DAT against Viola tricolor (Viola tricolor [5]): 80%
- Herbicidal action in [%] 14 DAT against Matricaria inodora (Matricaria inodora; 5 g of a.i./ha): 25%
- Herbicidal action in [%] 14 DAT against Bromus sterilis (Bromus sterilis [6]; 15 g of a.i./ha): 20%
- Herbicidal action in [%] 28 DAT against Bromus sterilis (Bromus sterilis [6]; 15 g of a.i./ha): 15%
- Herbicidal action in [%] 14 DAT against Bromus sterilis (Bromus sterilis [6]; 45 g of a.i./ha): 30%
- Herbicidal action in [%] 28 DAT against Bromus sterilis (Bromus sterilis [6]; 45 g of a.i./ha): 35%
- Herbicidal action in [%] 28 DAT against Lolium rigidum (Lolium rigidum [7]; 15 g of a.i./ha): 0%
- Herbicidal action in [%] 28 DAT against Lolium rigidum (Lolium rigidum [7]; 45 g of a.i./ha): 20%
- Herbicidal action in [%] 28 DAT against Lamium purpureum L. (Lamium purpureum): 80%
- Herbicidal action in [%] 14 DAT against Phalaris minor (Phalaris minor [8]; 15 g of a.i./ha): 15%
- Herbicidal action in [%] 28 DAT against Phalaris minor (Phalaris minor [8]; 15 g of a.i./ha): 0%
- Herbicidal action in [%] 14 DAT against Phalaris minor (Phalaris minor [8]; 45 g of a.i./ha): 20%
- Herbicidal action in [%] 28 DAT against Phalaris minor (Phalaris minor [8]; 45 g of a.i./ha): 10%
- Herbicidal action in [%] 28 DAT against Galium aparine (Galium aparine; 5 g of a.i./ha): 70%
- Herbicidal action in [%] 28 DAT against Galium aparine (Galium aparine; 15 g of a.i./ha): 80%
- Herbicidal action in [%] 14 DAT against Lolium rigidum (resistant biotype) ([9]; 15 g of a.i./ha): 10%
- Herbicidal action in [%] 28 DAT against Lolium rigidum (resistant biotype) ([9]; 15 g of a.i./ha): 0%
- Herbicidal action in [%] 14 DAT against Lolium rigidum (resistant biotype) ([9]; 45 g of a.i./ha): 25%
- Herbicidal action in [%] 28 DAT against Lolium rigidum (resistant biotype) ([9]; 45 g of a.i./ha): 20%
